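Briefly, cells in 96-well plates were exposed to five compound concentrations for 48 h, and endpoints were estimated by linear interpolation. Definition used: TGI = concentration required for complete inhibition of growth.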
What was measured:
Assay in all cases: inhibition of tumour cell growth, NCI panel, 48 h
A498 renal = tested on: A498 renal
HS 578T breast = tested on: HS 578T breast
HOP-92 NSCLC = tested on: HOP-92 NSCLC
K-562 leukemia = tested on: K-562 leukemia
NCI-H23 lung = tested on: NCI-H23 lung
OVCAR-5 ovarian = tested on: OVCAR-5 ovarian
M14 melanoma = tested on: M14 melanoma
SK-MEL-5 melanoma = tested on: SK-MEL-5 melanoma
SNB-19 CNS = tested on: SNB-19 CNS
NCI/ADR-RES ovarian = tested on: NCI/ADR-RES ovarian
SNB-75 CNS = tested on: SNB-75 CNS
KM12 colon = tested on: KM12 colon
CCRF-CEM leukemia = tested on: CCRF-CEM leukemia
PC-3 prostate = tested on: PC-3 prostate
HCC-2998 colon = tested on: HCC-2998 colon
SK-OV-3 ovarian = tested on: SK-OV-3 ovarian
ACHN renal = tested on: ACHN renal
NCI-H460 lung = tested on: NCI-H460 lung
SF-295 CNS = tested on: SF-295 CNS
U251 CNS = tested on: U251 CNS
T-47D breast = tested on: T-47D breast
MALME-3M melanoma = tested on: MALME-3M melanoma
COLO 205 colon = tested on: COLO 205 colon
SK-MEL-28 melanoma = tested on: SK-MEL-28 melanoma
A549 NSCLC = tested on: A549 NSCLC
CAKI-1 renal = tested on: CAKI-1 renal
SF-539 CNS = tested on: SF-539 CNS
NCI-H226 lung = tested on: NCI-H226 lung
HCT-15 colon = tested on: HCT-15 colon
SN12C renal = tested on: SN12C renal
LOX IMVI melanoma = tested on: LOX IMVI melanoma
MDA-N = tested on: MDA-N
SR leukemia = tested on: SR leukemia
UACC-257 melanoma = tested on: UACC-257 melanoma
SK-MEL-2 melanoma = tested on: SK-MEL-2 melanoma
UACC-62 melanoma = tested on: UACC-62 melanoma
IGROV1 ovarian = tested on: IGROV1 ovarian
MDA-MB-231 breast = tested on: MDA-MB-231 breast
HCT-116 colon = tested on: HCT-116 colon
EKVX NSCLC = tested on: EKVX NSCLC
UO-31 renal = tested on: UO-31 renal
786-0 renal = tested on: 786-0 renal
MCF7 breast = tested on: MCF7 breast
HOP-62 NSCLC = tested on: HOP-62 NSCLC
HT29 colon = tested on: HT29 colon
SW-620 colon = tested on: SW-620 colon
BT-549 breast = tested on: BT-549 breast
TK-10 renal = tested on: TK-10 renal
OVCAR-3 ovarian = tested on: OVCAR-3 ovarian
MOLT-4 leukemia = tested on: MOLT-4 leukemia
OVCAR-4 ovarian = tested on: OVCAR-4 ovarian
MDA-MB-435 = tested on: MDA-MB-435
OVCAR-8 ovarian = tested on: OVCAR-8 ovarian
DU-145 prostate = tested on: DU-145 prostate
SF-268 CNS = tested on: SF-268 CNS
HL-60(TB) leukemia = tested on: HL-60(TB) leukemia
RPMI-8226 leukemia = tested on: RPMI-8226 leukemia
RXF 393 renal = tested on: RXF 393 renal
NCI-H522 lung = tested on: NCI-H522 lung

SMILES: O=C(/C=C/c1ccc2c(c1)OCO2)NCc1ccco1
- TGI (A498 renal): > 100 µM
- TGI (HS 578T breast): > 100 µM
- TGI (HOP-92 NSCLC): > 100 µM
- TGI (K-562 leukemia): > 100 µM
- TGI (NCI-H23 lung): > 100 µM
- TGI (OVCAR-5 ovarian): > 100 µM
- TGI (M14 melanoma): > 100 µM
- TGI (SK-MEL-5 melanoma): > 100 µM
- TGI (SNB-19 CNS): > 100 µM
- TGI (NCI/ADR-RES ovarian): > 100 µM
- TGI (SNB-75 CNS): > 100 µM
- TGI (KM12 colon): > 100 µM
- TGI (CCRF-CEM leukemia): > 100 µM
- TGI (PC-3 prostate): > 100 µM
- TGI (HCC-2998 colon): > 100 µM
- TGI (SK-OV-3 ovarian): > 100 µM
- TGI (ACHN renal): > 100 µM
- TGI (NCI-H460 lung): > 100 µM
- TGI (SF-295 CNS): > 100 µM
- TGI (U251 CNS): > 100 µM
- TGI (T-47D breast): 80.9 µM
- TGI (MALME-3M melanoma): > 100 µM
- TGI (COLO 205 colon): > 100 µM
- TGI (SK-MEL-28 melanoma): > 100 µM
- TGI (A549 NSCLC): > 100 µM
- TGI (CAKI-1 renal): > 100 µM
- TGI (SF-539 CNS): > 100 µM
- TGI (NCI-H226 lung): > 100 µM
- TGI (HCT-15 colon): > 100 µM
- TGI (SN12C renal): > 100 µM
- TGI (LOX IMVI melanoma): > 100 µM
- TGI (MDA-N): > 100 µM
- TGI (SR leukemia): > 100 µM
- TGI (UACC-257 melanoma): > 100 µM
- TGI (SK-MEL-2 melanoma): > 100 µM
- TGI (UACC-62 melanoma): > 100 µM
- TGI (IGROV1 ovarian): > 100 µM
- TGI (MDA-MB-231 breast): > 100 µM
- TGI (HCT-116 colon): > 100 µM
- TGI (EKVX NSCLC): > 100 µM
- TGI (UO-31 renal): > 100 µM
- TGI (786-0 renal): > 100 µM
- TGI (MCF7 breast): > 100 µM
- TGI (HOP-62 NSCLC): > 100 µM
- TGI (HT29 colon): > 100 µM
- TGI (SW-620 colon): > 100 µM
- TGI (BT-549 breast): > 100 µM
- TGI (TK-10 renal): > 100 µM
- TGI (OVCAR-3 ovarian): > 100 µM
- TGI (MOLT-4 leukemia): > 100 µM
- TGI (OVCAR-4 ovarian): > 100 µM
- TGI (MDA-MB-435): > 100 µM
- TGI (OVCAR-8 ovarian): > 100 µM
- TGI (DU-145 prostate): > 100 µM

SMILES: N=C(c1ccc(-c2cn3cc(C(=N)N4CCCC4)ccc3n2)cc1)N1CCCC1
- TGI (SF-268 CNS): > 100 µM
- TGI (HS 578T breast): > 100 µM
- TGI (HOP-92 NSCLC): > 100 µM
- TGI (K-562 leukemia): > 100 µM
- TGI (NCI-H23 lung): > 100 µM
- TGI (OVCAR-5 ovarian): > 100 µM
- TGI (M14 melanoma): > 100 µM
- TGI (SK-MEL-5 melanoma): > 100 µM
- TGI (HL-60(TB) leukemia): 0.158 µM
- TGI (SNB-19 CNS): > 100 µM
- TGI (NCI/ADR-RES ovarian): > 100 µM
- TGI (SNB-75 CNS): > 100 µM
- TGI (KM12 colon): > 100 µM
- TGI (CCRF-CEM leukemia): 83.1 µM
- TGI (PC-3 prostate): > 100 µM
- TGI (SK-OV-3 ovarian): > 100 µM
- TGI (ACHN renal): > 100 µM
- TGI (RPMI-8226 leukemia): > 100 µM
- TGI (SF-295 CNS): > 100 µM
- TGI (U251 CNS): > 100 µM
- TGI (T-47D breast): > 100 µM
- TGI (MALME-3M melanoma): > 100 µM
- TGI (COLO 205 colon): > 100 µM
- TGI (SK-MEL-28 melanoma): > 100 µM
- TGI (A549 NSCLC): > 100 µM
- TGI (CAKI-1 renal): > 100 µM
- TGI (NCI-H226 lung): > 100 µM
- TGI (HCT-15 colon): > 100 µM
- TGI (SN12C renal): > 100 µM
- TGI (LOX IMVI melanoma): > 100 µM
- TGI (MDA-N): > 100 µM
- TGI (SR leukemia): > 100 µM
- TGI (UACC-257 melanoma): > 100 µM
- TGI (SK-MEL-2 melanoma): > 100 µM
- TGI (UACC-62 melanoma): > 100 µM
- TGI (IGROV1 ovarian): > 100 µM
- TGI (MDA-MB-231 breast): > 100 µM
- TGI (HCT-116 colon): > 100 µM
- TGI (EKVX NSCLC): > 100 µM
- TGI (UO-31 renal): > 100 µM
- TGI (786-0 renal): > 100 µM
- TGI (HOP-62 NSCLC): > 100 µM
- TGI (HT29 colon): > 100 µM
- TGI (RXF 393 renal): > 100 µM
- TGI (SW-620 colon): > 100 µM
- TGI (BT-549 breast): > 100 µM
- TGI (TK-10 renal): > 100 µM
- TGI (OVCAR-3 ovarian): > 100 µM
- TGI (MOLT-4 leukemia): > 100 µM
- TGI (OVCAR-4 ovarian): > 100 µM
- TGI (NCI-H522 lung): > 100 µM
- TGI (MDA-MB-435): > 100 µM
- TGI (OVCAR-8 ovarian): > 100 µM
- TGI (DU-145 prostate): > 100 µM

SMILES: OC(c1ccc(F)cc1)(c1ccc(F)cc1)C1CC1
- TGI (SF-268 CNS): > 100 µM
- TGI (A498 renal): 77.8 µM
- TGI (HS 578T breast): 82.6 µM
- TGI (HOP-92 NSCLC): 97 µM
- TGI (K-562 leukemia): > 100 µM
- TGI (NCI-H23 lung): 35.9 µM
- TGI (OVCAR-5 ovarian): > 100 µM
- TGI (M14 melanoma): 69.2 µM
- TGI (SK-MEL-5 melanoma): 30.2 µM
- TGI (HL-60(TB) leukemia): 47.3 µM
- TGI (SNB-19 CNS): > 100 µM
- TGI (NCI/ADR-RES ovarian): 58 µM
- TGI (SNB-75 CNS): > 100 µM
- TGI (KM12 colon): > 100 µM
- TGI (CCRF-CEM leukemia): 95.8 µM
- TGI (PC-3 prostate): 53.7 µM
- TGI (HCC-2998 colon): 45.7 µM
- TGI (SK-OV-3 ovarian): > 100 µM
- TGI (ACHN renal): > 100 µM
- TGI (NCI-H460 lung): > 100 µM
- TGI (RPMI-8226 leukemia): 59.2 µM
- TGI (SF-295 CNS): > 100 µM
- TGI (U251 CNS): 59.6 µM
- TGI (T-47D breast): > 100 µM
- TGI (MALME-3M melanoma): 65.2 µM
- TGI (COLO 205 colon): 29.7 µM
- TGI (SK-MEL-28 melanoma): > 100 µM
- TGI (A549 NSCLC): 94.2 µM
- TGI (CAKI-1 renal): 98.7 µM
- TGI (SF-539 CNS): > 100 µM
- TGI (NCI-H226 lung): 88.1 µM
- TGI (HCT-15 colon): 68.2 µM
- TGI (SN12C renal): 53.6 µM
- TGI (LOX IMVI melanoma): 48.2 µM
- TGI (MDA-N): 44.1 µM
- TGI (UACC-257 melanoma): 73 µM
- TGI (SK-MEL-2 melanoma): 32.5 µM
- TGI (UACC-62 melanoma): > 100 µM
- TGI (IGROV1 ovarian): > 100 µM
- TGI (MDA-MB-231 breast): > 100 µM
- TGI (HCT-116 colon): > 100 µM
- TGI (EKVX NSCLC): 96.2 µM
- TGI (UO-31 renal): 59.5 µM
- TGI (786-0 renal): > 100 µM
- TGI (MCF7 breast): > 100 µM
- TGI (HOP-62 NSCLC): > 100 µM
- TGI (HT29 colon): 65.9 µM
- TGI (RXF 393 renal): 67.7 µM
- TGI (SW-620 colon): > 100 µM
- TGI (BT-549 breast): 37.9 µM
- TGI (TK-10 renal): > 100 µM
- TGI (OVCAR-3 ovarian): > 100 µM
- TGI (MOLT-4 leukemia): 49.2 µM
- TGI (OVCAR-4 ovarian): 79.2 µM
- TGI (NCI-H522 lung): 52.9 µM
- TGI (MDA-MB-435): 74.2 µM
- TGI (OVCAR-8 ovarian): > 100 µM
- TGI (DU-145 prostate): > 100 µM
